Measured values taken from US9808443B1, “Cyclooxygenase inhibitors” (KING SAUD UNIVERSITY, priority 2016, dated 2017).

Assays:
[1] = system: COX-1; experiment: Western blot of COX-1 expression in rat gastric mucosa damaged by ethanol; assay type: in vivo; conditions: ethanol induced model, S3 25.6 mg/kg, indomethacin 25 mg/kg
[2] = system: carrageenan-induced rat paw edema; experiment: carrageenan-induced rat paw edema method (anti-inflammatory activity); assay type: in vivo; conditions: for anti-inflammatory activity (in words): compared with standard drug indomethacin; for anti-inflammatory activity, % inhibition of paw edema: equimolar oral dose, rat
Procedure: For the experimental results described below, healthy male albino rats (200 g-220 g) were used for the study. The animals were kept in standard plastic animal cages in groups of six animals each with 12 hour light and dark cycle at 25±2° C. The rats were fed on standard rat chow and provided water ad libitum. The animals were acclimatized to laboratory conditions for a week prior to experiments. Anti-inflammatory activity of the synthesized compounds S1-S18 was determined by the carrageenan-induced rat paw edema method. The compounds were tested at equimolar oral dose and were compared with the standard drug indomethacin. […]. Three compounds, namely S14, S7 and S3 containing R=2,4,5-trimethoxyphenyl; […].
Anti-inflammatory activity was determined by a carrageenan-induced rat paw edema method. Male rats weighing 200 g were housed in a room with a controlled temperature and 12 hour light/12 hour dark cycle, housed in a specific pathogen free environment, and fed standard rodent chow and given water ad libitum. Each treatment group and vehicle group consisted of six randomly assigned animals. Compounds were administered p.o. suspension. Paw edema was induced by intradermal injection of 50 μL of 1% carrageenan into the sub plantar region of the right hind paw, after one hour of compound administration. […] The control group received only the vehicle. Increase in paw edema was compared with that in the control group and percent inhibition was calculated taking the values in the control group as 0% inhibition.

[3] = system: nociceptive response on hot plate; experiment: hot plate test (analgesic activity); assay type: in vivo; parameters: concentration or dose not given beside the values; conditions: hot plate 58° C.; mice; 120 min after injection
Procedure: Male albino Swiss mice (25 g body weight) were divided into various groups (n=6). Each mouse was initially placed on a hot plate thermostatically maintained at 58° C. […] This time was considered as the control reaction time. A cut-off time of 60 s was used to avoid damage to the paws. To test the analgesic activity of the compounds, each group of mice was treated with one dose of the test compounds. The reaction time was then retested at 0 hour and 120 min after injection (each animal acted as its own control). The percentage changes in the reaction were then calculated.

[4] = system: COX-2; experiment: Western blot of COX-2 expression in rat gastric mucosa damaged by ethanol; conditions: ethanol induced model, S3 25.6 mg/kg, indomethacin 25 mg/kg
Procedure: A Western blot was performed for COX-1. […] For the Western blot analysis, 20 μg of protein was transferred to PVDF membranes, blocked in 5% skim milk in TBS buffer 1% Tween 20, and then incubated overnight with the COX-1, COX-2 and β-actin, followed by HRP-conjugated anti-rat/rabbit/goat antibodies for 2 hours at 25° C. Bands were visualized with the Luminata Western Chemiluminescent HRP Substrates and densitometric analysis of bands were assessed using LI-COR C-DiGit blot scanners.

[5] = system: ethanol-induced gastric ulcer; experiment: ethanol induced ulcer model (gastro-protective activity: ulcer index, mucus, PAS staining, histology); assay type: in vivo, rat; conditions: for histology of gastric tissue (in words): S3 25.6 mg/kg, indomethacin 25 mg/kg; for Ulcer index Mean ± SEM: pretreatment orally (S3 25.6 mg/kg, indomethacin 25 mg/kg) 1 hour before ethanol 95% 20 mL/kg, rats
From the text: Gastric mucus plays crucial role in gastro-protection. […] The mucus was formed from mucin-type glycoprotein. The mucus gel adhering to the gastric mucosal surface defends the epithelium beneath against acid, pepsin and necrotizing agents, such as ethanol and indomethacin. […] Gastric wall mucus coating might be relieved in the repair of the damaged gastric epithelium. […] The rats were grouped into five groups (n=6). Group I and II received saline solution and served as negative-control and ulcer-control, respectively. […] The animals were sacrificed 1 hour later under anesthesia and their stomachs were quickly removed for further studies. Periodic acid-Schiff (PAS) staining was used to observe the glycogen level in control and pretreated animals. […] Ethanol-induced gastric ulcers result from several mechanisms, including reduction of gastric mucus and impaired mucosal permeability, and leads to increased leakage of hydrogen ions from the lumen and decreased transluminal membrane potential difference. With regard to the gross gastric lesion evaluation, the stomach of each rat was opened along the greater arc and washed with saline water to remove gastric contents. Gastric ulcers appear as elongated bands on the gastric mucosa with hemorrhagic lesions being parallel to the long axis of the stomach. The mucosa was assessed for damage under dissecting microscope (1.8×) and a planimeter was used to measure the ulcers area (hemorrhagic lesions). The length and width of each lesion were measured and the sum of the area of all lesions for each stomach was expressed as the ulcer area (mm^2). To determine mucus production of the gastric mucosa, the gastric mucosa of each rat was gently scraped using a glass slide and the mucus obtained was weighed using a precision electronic balance. For the histologic studies, gastric tissues were collected and fixed in 10% formalin after sacrifice. Then, each sample was embedded in paraffin and cut into 5 μm thick slices for morphological and pathological evaluation. Tissue sections were stained with hematoxylin and eosin (H & E) and examined under a light microscope.

[6] = LD50 determination by the Karber method; conditions: in vivo, mouse, 24 hours observation
Procedure: The LD50 of compound S3 was determined by the Karber method. […] For LD50 determination, an observation was made for each mouse for 24 hours and symptoms of toxicity and rate of mortality in each group were noted. At the end of the study period, expired animals were counted for the calculation of LD50. The following method was used for the determination of LD50: LD50=LD100−Σ×(a×b)/n, where n is the total number of animals in a group, a is the difference between two successive doses of administered extract/substance, b is the average number of dead animals in two successive doses, and LD100 is the lethal dose causing 100% death of all test animals.

[7] = system: malondialdehyde (MDA) content; conditions: rat, in vivo
Procedure: The mixture was heated at 95° C. for 60 minutes. After cooling, the reactants were supplemented with 5 mL of a mixture of n-butanol:pyridine (15:1 v/v), shaken vigorously for 1 minute and centrifuged for 10 minutes at 4000 rpm. The supernatant organic layer was taken out and absorbance was measured at 532 nm on a UV spectrophotometer. The results were expressed as nmol MDA/100 mg tissue. Data are expressed as mean±S.E.M., and the student's t-test was applied to determine the significance of the difference between the standard group and rats treated with the test compounds. The lipid peroxidation was measured as nanomoles of MDA content/100 mg of liver and kidney tissue.

[8] = system: gastric mucosa; conditions: rat, in vivo
Procedure: For acute ulcerogenesis testing, albino rats were divided into different groups consisting of six animals in each group. […] Control rats received p.o. administration of vehicle (suspension of 1% methyl cellulose). Food (but not water) was removed 24 hours before administration of the test compounds. After the drug treatment, the rats were fed a normal diet for 17 hours and then sacrificed. The stomach was removed and opened along the greater curvature, washed with distilled water and cleaned gently by dipping in saline. The mucosal damage was examined by means of a magnifying glass. For each stomach, the mucosal damage was assessed according to the following scoring system: 0.5 redness; 1.0 spot ulcers; 1.5 hemorrhagic streaks; 2.0 ulcers <3 but ≦5; 3.0 ulcers >5. All of the compounds were tested at equimolar oral doses.

[9] = pretreated rats, ethanol induced ulcer

COc1ccc2[nH]c(C)c(CC(=O)N/N=C/c3cccc([N+](=O)[O-])c3)c2c1 [Compound S3, 2-(5-methoxy-2-methyl-1H-indol-3-yl)-N′-[(E)-(3-nitrophenyl)methylidene] acetohydrazide]
COX-1 expression / inhibition by Western blot (in words) [1]: weak COX-1 expression | anti-inflammatory activity (in words) [2]: most potent compounds with significant anti-inflammatory activity | analgesic activity (percentage change in reaction time) [3]: 61.36% | COX-2 expression / inhibition by Western blot (in words) [4]: potent COX-2 inhibition | histology of gastric tissue (in words) ([5]; ethanol induced ulcer): normal glandular pattern with mild inflammation and infiltration of leucocytes | PAS staining of gastric mucosa (in words) [5, 9]: substantially continuous PAS-positive mucous gel layer | mucus production by gastric mucosa (in words) [5, 9]: increased gradually | Ulcer index Mean ± SEM [5]: 2.83±0.87 mm^2 | LD50 at 24 h [6]: 35 mg/kg | lipid peroxidation (in words) [7]: maximum reduction in gastric ulceration and lipid peroxidation | ulcerogenic activity (in words) [8]: less ulcerogenic than the reference drug indomethacin

COc1ccc2[nH]c(C)c(CC(=O)N/N=C/c3ccccc3[N+](=O)[O-])c2c1 [Compound S4, 2-(5-methoxy-2-methyl-1H-indol-3-yl)-N′-[(E)-(2-nitrophenyl)methylidene] acetohydrazide]
melting point: 210 to 212 °C

COc1ccc2[nH]c(C)c(CC(=O)N/N=C/c3ccc(Cl)cc3)c2c1 [Compound S5, N′-[(E)-(4-chlorophenyl)methylidene]-2-(5-methoxy-2-methyl-1H-indol-3-yl)acetohydrazide]
melting point: 180 to 182 °C

COc1ccc2[nH]c(C)c(CC(=O)N/N=C/c3ccc(Cl)cc3Cl)c2c1 [Compound S6, N′-[(E)-(2,4-dichlorophenyl)methylidene]-2-(5-methoxy-2-methyl-1H-indol-3-yl)acetohydrazide]
melting point: 238 to 240 °C

COc1ccc2[nH]c(C)c(CC(=O)N/N=C/c3ccc(OC)c(OC)c3)c2c1 [Compound S7, 2-(5-methoxy-2-methyl-1H-indol-3-yl)-N′-[(E)-(3,4-dimethoxyphenyl)methylidene] acetohydrazide]
anti-inflammatory activity (in words) [2]: most potent compounds with significant anti-inflammatory activity | analgesic activity (percentage change in reaction time) [3]: 47.72% | melting point: 210 to 212 °C | ulcerogenic activity (in words) [8]: less ulcerogenic than the reference drug indomethacin

COc1ccc2[nH]c(C)c(CC(=O)N/N=C/c3ccccc3OC)c2c1 [Compound S8, 2-(5-methoxy-2-methyl-1H-indol-3-yl)-N′-[(E)-(2-methoxyphenyl)methylidene] acetohydrazide]
melting point: 220 to 222 °C

COc1ccc2[nH]c(C)c(CC(=O)N/N=C/c3ccc(O)cc3)c2c1 [Compound S9, N-[(E)-(4-hydroxyphenyl)methylidene]-2-(5-methoxy-2-methyl-1H-indol-3-yl)acetohydrazide]
analgesic activity (percentage change in reaction time) [3]: 55.81%

COc1ccc2[nH]c(C)c(CC(=O)N/N=C/c3cccc(O)c3)c2c1 [Compound S10, N′-[(E)-(3-hydroxyphenyl)methylidene]-2-(5-methoxy-2-methyl-1H-indol-3-yl)acetohydrazide]
analgesic activity (percentage change in reaction time) [3]: 62.50% | melting point: 145 to 147 °C

COc1ccc2[nH]c(C)c(CC(=O)N/N=C/c3ccc(N(C)C)cc3)c2c1 [Compound S11, 2-(5-methoxy-2-methyl-1H-indol-3-yl)-N′-{(E)-[4-(dimethylamino)phenyl]methylidene}acetohydrazide]
melting point: 200 to 202 °C

COc1cccc(/C=N/NC(=O)Cc2c(C)[nH]c3ccc(OC)cc23)c1 [Compound S12, 2-(5-methoxy-2-methyl-1H-indol-3-yl)-N′-[(E)-(3-methoxyphenyl)methylidene] acetohydrazide]
melting point: 195 to 197 °C

CCOc1ccc(/C=N/NC(=O)Cc2c(C)[nH]c3ccc(OC)cc23)cc1 [Compound S13, N′-[(E)-(4-ethoxyphenyl)methylidene]-2-(5-methoxy-2-methyl-1H-indol-3-yl)acetohydrazide]
melting point: 213 to 215 °C

COc1ccc2[nH]c(C)c(CC(=O)N/N=C/c3cc(OC)c(OC)cc3OC)c2c1 [Compound S14, 2-(5-methoxy-2-methyl-1H-indol-3-yl)-N′-[(E)-(2,4,5-trimethoxyphenyl)methylidene]acetohydrazide]
anti-inflammatory activity (in words) [2]: most potent compounds with significant anti-inflammatory activity | analgesic activity (percentage change in reaction time) [3]: 70.27% | melting point: 238 to 240 °C | ulcerogenic activity (in words) [8]: less ulcerogenic than the reference drug indomethacin

COc1ccc2[nH]c(C)c(CC(=O)N/N=C/c3ccc(OC)c(OC)c3OC)c2c1 [Compound S15, 2-(5-methoxy-2-methyl-1H-indol-3-yl)-N′-[(E)-(2,3,4-trimethoxyphenyl)methylidene]acetohydrazide]
melting point: 250 to 252 °C

COc1ccc2[nH]c(C)c(CC(=O)N/N=C/c3cc(OC)c(OC)c(OC)c3)c2c1 [Compound S16, 2-(5-methoxy-2-methyl-1H-indol-3-yl)-N′-[(E)-(3,4,5-trimethoxyphenyl)methylidene]acetohydrazide]
melting point: 233 to 235 °C

COc1cc(OC)c(/C=N/NC(=O)Cc2c(C)[nH]c3ccc(OC)cc23)c(OC)c1 [Compound S17, 2-(5-methoxy-2-methyl-1H-indol-3-yl)-N′-[(E)-(2,4,6-trimethoxyphenyl)methylidene]acetohydrazide]
analgesic activity (percentage change in reaction time) [3]: 61.53% | melting point: 230 to 232 °C

COc1ccc(/C=N/NC(=O)Cc2c(C)[nH]c3ccc(OC)cc23)c(OC)c1 [Compound S18, 2-(5-methoxy-2-methyl-1H-indol-3-yl)-N′-[(E)-(2,4-dimethoxyphenyl)methylidene]acetohydrazide]
melting point: 170 to 172 °C

COc1ccc2c(c1)c(CC(=O)O)c(C)n2C(=O)c1ccc(Cl)cc1 [indomethacin, reference compound]
COX-1 expression / inhibition by Western blot (in words) [1]: potent COX-1 inhibitor | anti-inflammatory activity, % inhibition of paw edema ([2]; after 2 hours): 77.23% | anti-inflammatory activity, % inhibition of paw edema ([2]; after 4 hours): 76.89% | histology of gastric tissue (in words) ([5]; ethanol induced ulcer): severe ulceration in comparison with the ethanol induced ulceration | PAS staining of gastric mucosa (in words) [5, 9]: did not exhibit this magenta staining color of PAS | Ulcer index Mean ± SEM [5]: 12.34±0.73 mm^2 | Ulcer index Mean ± SEM ([5]; listed as Indomethacin): 12.34 ± 0.73 mm^2
